Measured values published in patent US20100274022A1, “G PROTEIN-COUPLED RECEPTOR INHIBITOR AND PHARMACEUTICAL PRODUCT” (PHARMAFRONTIER CO., LTD., priority 2007, published 2010).

Molecular target: T1, humanGPR120 (Homo sapiens, UniProt Q5NUL3)
T1 construct: expressed in transfected cells
T1 sequence (Q5NUL3 1-377 isoform Q5NUL3-1 R67C/Q274H/I297T): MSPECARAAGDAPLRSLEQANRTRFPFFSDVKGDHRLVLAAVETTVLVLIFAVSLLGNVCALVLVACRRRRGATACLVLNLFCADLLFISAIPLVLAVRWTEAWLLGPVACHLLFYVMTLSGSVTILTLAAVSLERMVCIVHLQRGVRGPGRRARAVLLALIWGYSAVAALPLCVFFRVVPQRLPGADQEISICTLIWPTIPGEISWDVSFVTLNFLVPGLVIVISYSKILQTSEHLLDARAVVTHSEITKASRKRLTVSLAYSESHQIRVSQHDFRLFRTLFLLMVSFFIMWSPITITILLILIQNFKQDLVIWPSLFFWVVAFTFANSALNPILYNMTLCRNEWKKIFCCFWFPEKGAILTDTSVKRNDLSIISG
Test: Inhibitory effect on activation (antagonistic activity): α-LA-stimulated increase in intracellular Ca2+ concentration measured by FLIPR in cells comprising GPR120
Type: cell-based

Substance: (E)-3-{3-[2-(2-nonylpyridinylamino)ethoxy]phenyl}acrylic acid [ATG-19]
- antagonistic activity for GPR120 (result in words): significant antagonistic activity
